Experimental data as given in patent publication US9364494B2, “Somatostatin 2 receptor (sst2), deoxycytidine kinase (dck) and uridine monophosphate kinase (umk) pancreatic gene therapy” (Institut National de la Sante et de la Recherche Medicale …, priority 2007, dated 2016).

Assays:
PC1.0 cells [1] = type: in vivo; details: day 15 post-cell implantation; 25 to 50 μg expression vector intra-tumoral; gemcitabine i.p. 80 to 120 mg/kg/day every three days
PC1.0 cells [2] = system: PC1.0 cells; set-up: species or system Syrian golden hamsters; details: hamster, in vivo, ip, 120 mg/kg/day

## Cl.Nc1ccn([C@@H]2O[C@H](CO)[C@@H](O)C2(F)F)c(=O)n1 [Gemcitabine, No DNA, 2′-deoxy-2′,2′-difluorocytidine monohydrochloride]
PC1.0 cells [1]
  Tumor progression (percentage): +150 to 378 percentage
PC1.0 cells [2]
  tumor evolution on day 15: only slow down the tumor progression
